Test results published in ChEMBL document CHEMBL1128780, “Inactivation of carboxypeptidase a by 2-benzyl-3,4-epithiobutanoic acid” (Bioorg Med Chem Lett, 1995).

Tests used:
[1] = (§1) Inhibitory activity against Carboxypeptidase A (CPA)
[2] = as §1; remark: listed apart in the source

Ki [1]	K inact [2]	SMILES
155 µM	1.11 min⁻¹	O=C(O)[C@@H](Cc1ccccc1)[C@H]1CO1
86 µM	1.59 min⁻¹	O=C(O)[C@H](Cc1ccccc1)[C@H]1CO1 (single isomer, unassigned)

SMILES	Ki [1]	K inact [2]
O=C(O)[C@H](Cc1ccccc1)[C@H]1CS1	94 µM	1.31 min⁻¹
